Test results published in ChEMBL document CHEMBL1275333, “Identification of non-peptide malignant brain tumor (MBT) repeat antagonists by virtual screening of commercially available compounds” (J Med Chem, 2010).

How the values were obtained:
[1] = biological target: T1, Lethal(3)malignant brain tumor-like protein 3 (Homo sapiens, UniProt Q96JM7); assay: Inhibition of L3MBTL3 by alpha-screening
T1 sequence (Q96JM7 whole entry): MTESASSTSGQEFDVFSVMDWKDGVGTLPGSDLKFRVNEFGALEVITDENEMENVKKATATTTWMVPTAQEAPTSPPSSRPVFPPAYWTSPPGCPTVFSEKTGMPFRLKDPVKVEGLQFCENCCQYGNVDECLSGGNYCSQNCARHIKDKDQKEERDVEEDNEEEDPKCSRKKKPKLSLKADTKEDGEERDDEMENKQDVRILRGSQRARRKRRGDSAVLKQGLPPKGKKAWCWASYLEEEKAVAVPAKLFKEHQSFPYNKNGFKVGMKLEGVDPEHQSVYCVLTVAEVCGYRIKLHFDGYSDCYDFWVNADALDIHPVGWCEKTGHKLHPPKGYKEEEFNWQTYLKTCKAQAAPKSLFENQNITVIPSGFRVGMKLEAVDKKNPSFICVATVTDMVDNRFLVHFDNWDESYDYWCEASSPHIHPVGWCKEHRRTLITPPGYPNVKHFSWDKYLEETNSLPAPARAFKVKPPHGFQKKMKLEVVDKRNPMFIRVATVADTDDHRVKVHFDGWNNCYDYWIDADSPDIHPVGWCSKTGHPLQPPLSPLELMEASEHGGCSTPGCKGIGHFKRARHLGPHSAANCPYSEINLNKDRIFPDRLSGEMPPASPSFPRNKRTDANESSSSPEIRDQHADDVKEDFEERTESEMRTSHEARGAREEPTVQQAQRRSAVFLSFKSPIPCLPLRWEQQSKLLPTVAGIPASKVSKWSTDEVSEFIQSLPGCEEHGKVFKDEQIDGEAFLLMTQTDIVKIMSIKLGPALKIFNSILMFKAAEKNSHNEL

[2] = biological target: T2, Lethal(3)malignant brain tumor-like protein 1 (Homo sapiens, UniProt Q9Y468); assay: Inhibition of L3MBTL1 by alpha-screening
T2 sequence (Q9Y468 whole entry): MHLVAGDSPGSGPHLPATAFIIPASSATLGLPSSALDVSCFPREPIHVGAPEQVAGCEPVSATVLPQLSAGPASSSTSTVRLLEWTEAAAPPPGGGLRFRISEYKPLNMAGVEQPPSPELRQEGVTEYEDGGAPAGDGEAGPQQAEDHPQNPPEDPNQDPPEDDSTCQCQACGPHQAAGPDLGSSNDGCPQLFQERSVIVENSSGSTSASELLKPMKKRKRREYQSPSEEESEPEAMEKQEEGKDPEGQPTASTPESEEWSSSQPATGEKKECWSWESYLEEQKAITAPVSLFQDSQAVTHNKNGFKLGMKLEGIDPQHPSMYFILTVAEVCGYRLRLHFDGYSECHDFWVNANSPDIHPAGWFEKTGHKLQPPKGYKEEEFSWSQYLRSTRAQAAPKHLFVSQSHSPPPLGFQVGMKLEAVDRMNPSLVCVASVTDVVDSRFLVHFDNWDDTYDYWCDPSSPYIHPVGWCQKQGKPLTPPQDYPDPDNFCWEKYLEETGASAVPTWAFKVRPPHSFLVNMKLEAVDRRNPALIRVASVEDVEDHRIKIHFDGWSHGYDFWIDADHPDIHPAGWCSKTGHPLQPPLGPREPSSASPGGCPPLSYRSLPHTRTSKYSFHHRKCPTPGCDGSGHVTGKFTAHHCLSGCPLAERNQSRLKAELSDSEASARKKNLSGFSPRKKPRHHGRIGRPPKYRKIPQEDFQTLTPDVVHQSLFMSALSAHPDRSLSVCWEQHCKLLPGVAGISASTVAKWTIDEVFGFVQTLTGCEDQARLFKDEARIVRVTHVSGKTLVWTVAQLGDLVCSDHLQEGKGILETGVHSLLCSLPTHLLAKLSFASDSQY

[3] = biological target: T3, Lethal(3)malignant brain tumor-like protein 4 (Homo sapiens, UniProt Q8NA19); assay: Inhibition of L3MBTL4 by alpha-screening
T3 sequence (Q8NA19 whole entry): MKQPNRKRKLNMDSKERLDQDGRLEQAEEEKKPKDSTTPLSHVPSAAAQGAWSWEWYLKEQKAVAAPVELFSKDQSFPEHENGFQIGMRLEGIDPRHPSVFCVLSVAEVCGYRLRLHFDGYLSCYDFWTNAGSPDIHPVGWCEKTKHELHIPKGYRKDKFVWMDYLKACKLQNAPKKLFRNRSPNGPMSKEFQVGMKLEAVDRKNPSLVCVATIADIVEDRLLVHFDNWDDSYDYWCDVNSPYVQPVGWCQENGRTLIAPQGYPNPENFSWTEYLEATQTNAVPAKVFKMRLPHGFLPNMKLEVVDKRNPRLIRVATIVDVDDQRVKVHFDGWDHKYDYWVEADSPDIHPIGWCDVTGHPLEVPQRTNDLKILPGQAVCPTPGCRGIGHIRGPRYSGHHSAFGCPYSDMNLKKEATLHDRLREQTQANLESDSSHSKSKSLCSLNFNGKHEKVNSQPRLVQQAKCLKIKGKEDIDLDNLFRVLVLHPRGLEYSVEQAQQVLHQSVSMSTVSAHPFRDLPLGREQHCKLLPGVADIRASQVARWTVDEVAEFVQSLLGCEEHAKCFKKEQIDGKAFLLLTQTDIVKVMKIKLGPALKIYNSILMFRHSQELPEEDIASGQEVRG

[4] = biological target: MBT domain-containing protein 1 (Homo sapiens, UniProt Q05BQ5); assay: Inhibition of MBTD1 by alpha-screening
[5] = AlphaScreen counterscreen signal interference at 100 uM

Sequence of MBT domain-containing protein 1 (Q05BQ5 whole entry, the tested form may be a part): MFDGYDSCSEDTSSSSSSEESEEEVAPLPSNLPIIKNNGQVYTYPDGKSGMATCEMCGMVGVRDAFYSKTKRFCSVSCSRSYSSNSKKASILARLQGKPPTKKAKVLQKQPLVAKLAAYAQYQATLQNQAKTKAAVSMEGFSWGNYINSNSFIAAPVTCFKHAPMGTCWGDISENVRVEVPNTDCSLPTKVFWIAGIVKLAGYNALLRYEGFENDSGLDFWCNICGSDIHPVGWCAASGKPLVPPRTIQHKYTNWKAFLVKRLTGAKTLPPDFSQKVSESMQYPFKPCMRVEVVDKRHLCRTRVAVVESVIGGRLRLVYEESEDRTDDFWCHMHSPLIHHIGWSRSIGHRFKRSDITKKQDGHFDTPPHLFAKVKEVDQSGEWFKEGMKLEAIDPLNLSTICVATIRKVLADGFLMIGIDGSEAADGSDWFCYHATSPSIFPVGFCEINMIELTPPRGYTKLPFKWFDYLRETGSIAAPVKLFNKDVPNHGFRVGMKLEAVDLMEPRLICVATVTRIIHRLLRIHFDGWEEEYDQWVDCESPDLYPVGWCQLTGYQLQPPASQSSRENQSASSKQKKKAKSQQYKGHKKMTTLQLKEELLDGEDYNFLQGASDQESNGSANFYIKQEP

| Structure (SMILES) | IC50 [1] [µM] | IC50 [2] [µM] | IC50 [3] [µM] | IC50 [4] [µM] | Activity [5] [%] |
| --- | --- | --- | --- | --- | --- |
| CNCCCCOc1ccc(Cc2ccccc2)cc1 | > 100 | 91 | > 100 | > 100 | 8 |
| Cc1ccc(S(=O)(=O)NCCCN2CCCC2)cc1 |  | 17 | > 100 | 59 |  |
| CN(C)CCCNC(=O)C1(O)c2cc(Br)ccc2NC(=O)N1c1ccc(Cl)cc1 (stereo unspecified) |  | 52 | > 100 | 37 | 3 |
| CNCCCC1Sc2ccccc2Oc2ccccc21 (stereo unspecified) |  | 14 | > 100 | > 100 |  |
| CNCC1CCN(CCc2ccc(Cl)cc2)CC1 |  | 69 | > 100 | > 100 |  |
| CCc1cc(OCCCCNC)ccc1Cl |  | 96 | > 100 | > 100 |  |
| CC(CCN(C)C)OC(=O)c1ccc(C(C)c2ccccc2)o1 (stereo unspecified) | 75 | 84 | > 100 | 66 | 22 |
| CCN(CC)CCCNS(=O)(=O)c1cc(OC)ccc1OC | 48 | > 100 | > 100 | > 100 | -6 |
| CNCCCCc1ccccc1 | > 100 | 68 | > 100 | > 100 | 5 |
| CNCCC1OC(c2ccc(Cl)cc2)Cc2ccccc21 (stereo unspecified) |  |  | 78 | > 100 |  |
| Cc1ncc(CCCCN(C)C)c2c1[nH]c1ccccc12 | 5.7 | 21 | > 100 | 73 | 15 |
| CN(C)CCC(=O)c1cc2c(cc1Br)OCCCO2 | > 100 | > 100 | 12 | > 100 | 35 |
| CCN(CC)CC#CCOC(=O)C(O)(c1ccccc1)C1CCCCC1 (stereo unspecified) [OXYBUTYNIN] |  | > 100 | > 100 | > 100 |  |
| CN(C)CCC(c1ccc(Cl)cc1)c1ccccn1 (stereo unspecified) [CHLORPHENIRAMINE] |  |  |  | 34 |  |
| CCN(CC)CCCNS(=O)(=O)c1ccc(F)c(Cl)c1 |  | > 100 | > 100 | > 100 | 8 |
| CNCCCC(C#N)(c1ccccc1C)C(C)C (stereo unspecified) | > 100 | 18 | > 100 | > 100 | 3 |
| CNCCCCOc1ccc(C)cc1OC | 84 | > 100 | 92 | > 100 | 30 |
